Measurements published in BigSolDB 2.1.

Structure (SMILES): O=C1NS(=O)(=O)c2ccccc21
- solubility (mole fraction) (in acetonitrile, 293.15 K): 0.00739
- solubility (mole fraction) (in acetonitrile, 298.15 K): 0.00809
- solubility (mole fraction) (in acetonitrile, 303.15 K): 0.00936
- solubility (mole fraction) (in acetonitrile, 308.15 K): 0.0105
- solubility (mole fraction) (in acetonitrile, 313.15 K): 0.012
- solubility (mole fraction) (in acetonitrile, 318.15 K): 0.0143
- solubility (mole fraction) (in acetonitrile, 323.15 K): 0.0157
- solubility (mole fraction) (in ethanol, 293.15 K): 0.00821
- solubility (mole fraction) (in ethanol, 298.15 K): 0.00924
- solubility (mole fraction) (in ethanol, 303.15 K): 0.0108
- solubility (mole fraction) (in ethanol, 308.15 K): 0.0121
- solubility (mole fraction) (in ethanol, 313.15 K): 0.0144
- solubility (mole fraction) (in ethanol, 318.15 K): 0.0169
- solubility (mole fraction) (in ethanol, 323.15 K): 0.0196
- solubility (mole fraction) (in isopropanol, 293.15 K): 0.00792
- solubility (mole fraction) (in isopropanol, 298.15 K): 0.00942
- solubility (mole fraction) (in isopropanol, 303.15 K): 0.011
- solubility (mole fraction) (in isopropanol, 308.15 K): 0.013
- solubility (mole fraction) (in isopropanol, 313.15 K): 0.016
- solubility (mole fraction) (in isopropanol, 318.15 K): 0.0193
- solubility (mole fraction) (in isopropanol, 323.15 K): 0.0231
- solubility (mole fraction) (in methanol, 293.15 K): 0.00927
- solubility (mole fraction) (in methanol, 298.15 K): 0.0102
- solubility (mole fraction) (in methanol, 303.15 K): 0.012
- solubility (mole fraction) (in methanol, 308.15 K): 0.0136
- solubility (mole fraction) (in methanol, 313.15 K): 0.0161
- solubility (mole fraction) (in methanol, 318.15 K): 0.0187
- solubility (mole fraction) (in methanol, 323.15 K): 0.0218
